Results reported in patent US20260092085A1, “SYNTHETIC TRIPLEX PEPTIDE NUCLEIC ACID-BASED INHIBITORS FOR CANCER THERAPY” (University of Connecticut, priority 2022, published 2026).

Assays:
U2932 tumors = assay: Immunostaining of Caspase-3 and Ki67 in treated U2932 tumors; type: in vivo, NSG mice; conditions: U2932 xenograft
Procedure: FIGS. 17A-D show in vivo studies in U2932 derived xenograft model. (17A) Biodistribution of γtcPNA-155 TAMRA in tumor sections (17B) Tumor volume fold change (n=6, data represented as mean±standard error mean (SEM), *p<0.05, **p<0.01, multiple t-tests one per row was used for statistical analysis). Asterisk denotes the analysis was performed relative to Scr-γtcPNA-155. Diamond symbol denotes the analysis was performed relative to PNA-155. (17C) Representative images showing the effects of Scr-γtcPNA-155, PNA-155, γPNA-155 and γtcPNA-155 on Caspase-3 immunostaining of tumor (magnification; ×20). Autofluorescence (AF) at 514 nm was used to show the tumor. Scale bar=[…]. (17D) Caspase-3 immunostaining quantification, *p<0.05. n=15. The n indicates the number of images.
FIGS. 21A-B show Ki-67 immunostaining (21A) and quantification (21B) in the in vivo treated tumors (n=15), **p<0.01. The n indicates the number of images. Scale bar=50 μm.
Histopathology and immunohistochemistry; The mice were sacrificed by CO2 inhalation when tumor volume reached 2000 mm^3. The tumor and vital organs (e.g., liver, kidney, spleen, lungs, heart) were carefully isolated, weighed, and fixed in the 10% NBF solution. The sections ([…]) of formalin-fixed paraffin-embedded liver and kidney were stained by hematoxylin and eosin for the histological analysis. […]

miR-155 = assay: Gel shift binding assay (PAGE, SYBR Gold)
Procedure: (1D) Dose-dependent gel shift binding assay of target miR-155 ([…]) with PNA-155 and γtcPNA-155 at indicated concentrations. The samples were prepared in the physiological buffer (2 mM MgCl2, 150 mM KCl, 10 mM NaPi) and incubated for 24 hours at physiological temperature (37° C.) followed by PAGE separation and visualization of bands by SYBr® Gold staining. […] (iii) γtcPNA-155 binding with the target miR-155 by Watson Crick and Hoogsteen base pairing. (iv) γtcPNA-155 binding with the miR-155 by Watson-Crick base pairing. (v) Clamp segment of γtcPNA-155 binding with the target miR-155 by Hoogsteen base pairing.
Gel shift assay: Different concentration of PNA-155 or gamma tcPNA-155 were made in physiological buffer (2 mM MgCl2, 150 mM KCl, 10 mM NaPi) and incubated overnight at 37° C. with 1 μM DNA-155 target. The samples were run through 8% Polyacrylamide gel electrophoresis (PAGE) gel in IX TBE buffer at 120 volts for 35 mins. The gel was stained with SyBr Gold for two mins and visualized using Gel Doc™ EZ Imager (Bio-rad). […]
Next, we evaluated the binding affinity of γtcPNA-155 and PNA-155 with the miR-155 target by polyacrylamide gel electrophoresis (PAGE) based protocols (FIG. 1D). We incubated PNA-155 and γtcPNA-155 with miR-155 at indicated concentrations in physiological buffer and temperature and assessed the binding by PAGE followed by SYBR gold staining. […]

SUDHL-2 tumors = assay: Tumor growth in SUDHL-2 derived xenograft; type: in vivo, NSG mice; conditions: SUDHL-2 xenograft, intratumoral, compared to Scr-γtcPNA-155 and PNA-155 control
Procedure: Data represented as mean±standard error mean (SEM). Scr-γtcPNA-155 (n=4), PNA-155 (n=5), γtcPNA-155 (n=5), *p<0.05, **p<0.01, ***p<0.001, ****p<0.0001. Multiple t-tests one per row was used for statistical analysis.
For SUDHL-2 xenografts, 1×10^7 SUDHL-2 cells suspended in RPMI-1640 medium were injected subcutaneously in the right and left flank of 6-week-old NSG mice. The mice developed a small bump in 2-3 weeks. When the tumor volume reached 100-200 mm^3, the mice were randomly allocated to the treatment group (n=5 per group).
Further, we corroborated our results in the SUDHL-2 derived xenograft mouse model. We injected the SUDHL-2 cells in the right and left flank of mice. After 14-21 days, when the tumor volume reached 100-200 mm3, the mice were randomized into three treatment groups based on uniform tumor volume distribution in each group. […] (FIG. 27)

γtcPNA-155: serine gamma tail-clamp anti-miR-155 PNA, RR-TJJJJ-OOO-ACCCCTATCACGATTAGCATTAA-RR, SEQ ID NO: 3 (all peptide nucleic acid (PNA); serine gamma PNA, tail-clamp TJJJJ via linkers, Arg-Arg at both ends)
Caspase-3 positive cells in tumor sections (U2932 tumors): increase
Ki67 positive cells in tumor sections (U2932 tumors): significant decrease
binding affinity with miR-155 target (comparison) (miR-155): stronger binding affinity compared to regular PNA-155
tumor growth (SUDHL-2 tumors): reduced the tumor growth
